We go through seven compounds from paper PMC9021566, “Design, Synthesis, and Antitumor Activity Study of All-Hydrocarbon-Stapled B1-Leu Peptides” (Frontiers in Chemistry, 2022).

Like-named read-outs stand apart in the source and are kept apart here.

Series [1] can be described thus: On-resin ring-closing olefin metathesis (all-hydrocarbon stapling, S5/S5 i,i+4 or R8/S5 i,i+7), first-generation Grubbs catalyst (3 equiv); then Fmoc removal, TFA cleavage, RP-HPLC. The conditions noted are these: the molecule shown is the open-chain precursor, 25.0 °C, 4.0 h.
The conditions of series [2]: the molecule shown is the open-chain precursor, resin.
The mark [3] stands for this setting: 33-membered ring, 1,2-dichloroethane (dry).
[4] abbreviates: 21-membered ring, 1,2-dichloroethane (dry).

As to `C=CCCCCCC[C@@](C)(NC(=O)[C@@H](NC(=O)OCC1c2ccccc2-c2ccccc21)C(C)C)C(=O)N[C@@H](CCCNC(=N)NS(=O)(=O)c1c(C)c(C)c2c(c1C)CC(C)(C)O2)C(=O)N[C@@H](Cc1ccccc1)C(=O)N[C@@H](CCCCNC(=O)OC(C)(C)C)C(=O)N[C@@H](CCCCNC(=O)OC(C)(C)C)C(=O)N[C@@H](Cc1ccccc1)C(=O)N[C@@H](Cc1ccccc1)C(=O)N[C@@](C)(CCCC=C)C(=O)N[C@@H](CCCCNC(=O)OC(C)(C)C)C(=O)N[C@@H](CC(C)C)C(=O)N[C@@H](CCCCNC(=O)OC(C)(C)C)C(=O)N[C@@H](CCCCNC(=O)OC(C)(C)C)C(=O)N[C@@H](CC(C)C)C(=O)N[C@H](C(N)=O)C(C)C`, in series [1] (setting [3]), the ring closure, overall yield amounted to 62%.
For the compound `C=CCCC[C@](C)(NC(=O)[C@H](Cc1ccccc1)NC(=O)[C@H](Cc1ccccc1)NC(=O)[C@H](CCCCNC(=O)OC(C)(C)C)NC(=O)[C@H](CCCCNC(=O)OC(C)(C)C)NC(=O)[C@H](Cc1ccccc1)NC(=O)[C@H](CCCNC(=N)NS(=O)(=O)c1c(C)c(C)c2c(c1C)CC(C)(C)O2)NC(=O)[C@H](CCCCNC(=O)OC(C)(C)C)NC(=O)[C@@H](NC(=O)OCC1c2ccccc2-c2ccccc21)C(C)C)C(=O)N[C@@H](CCCCNC(=O)OC(C)(C)C)C(=O)N[C@@H](CC(C)C)C(=O)N[C@@H](CCCCNC(=O)OC(C)(C)C)C(=O)N[C@@](C)(CCCC=C)C(=O)N[C@@H](CC(C)C)C(=O)N[C@H](C(N)=O)C(C)C`, the ring closure, overall yield in series [1] (setting [4]) came out at 68%.
As to `C=CCCC[C@](C)(NC(=O)[C@H](Cc1ccccc1)NC(=O)[C@H](Cc1ccccc1)NC(=O)[C@H](CCCCNC(=O)OC(C)(C)C)NC(=O)[C@](C)(CCCC=C)NC(=O)[C@H](Cc1ccccc1)NC(=O)[C@H](CCCNC(=N)NS(=O)(=O)c1c(C)c(C)c2c(c1C)CC(C)(C)O2)NC(=O)[C@H](CCCCNC(=O)OC(C)(C)C)NC(=O)[C@@H](NC(=O)OCC1c2ccccc2-c2ccccc21)C(C)C)C(=O)N[C@@H](CCCCNC(=O)OC(C)(C)C)C(=O)N[C@@H](CC(C)C)C(=O)N[C@@H](CCCCNC(=O)OC(C)(C)C)C(=O)N[C@@H](CCCCNC(=O)OC(C)(C)C)C(=O)N[C@@H](CC(C)C)C(=O)N[C@H](C(N)=O)C(C)C`, the ring closure, overall yield in series [1] (setting [4]) stood at 64%.
Consider `C=CCCCCCC[C@@](C)(NC(=O)[C@H](CCCCNC(=O)OC(C)(C)C)NC(=O)[C@H](Cc1ccccc1)NC(=O)[C@H](CCCNC(=N)NS(=O)(=O)c1c(C)c(C)c2c(c1C)CC(C)(C)O2)NC(=O)[C@H](CCCCNC(=O)OC(C)(C)C)NC(=O)[C@@H](NC(=O)OCC1c2ccccc2-c2ccccc21)C(C)C)C(=O)N[C@@H](Cc1ccccc1)C(=O)N[C@@H](Cc1ccccc1)C(=O)N[C@@H](CCCNC(=N)NS(=O)(=O)c1c(C)c(C)c2c(c1C)CC(C)(C)O2)C(=O)N[C@@H](CCCCNC(=O)OC(C)(C)C)C(=O)N[C@@H](CC(C)C)C(=O)N[C@@H](CCCCNC(=O)OC(C)(C)C)C(=O)N[C@@](C)(CCCC=C)C(=O)N[C@@H](CC(C)C)C(=O)N[C@H](C(N)=O)C(C)C`, for which the ring closure, overall yield in series [1] (setting [3]) came to 62%.
For `C=CCCCCCC[C@@](C)(NC(=O)[C@H](Cc1ccccc1)NC(=O)[C@H](CCCNC(=N)NS(=O)(=O)c1c(C)c(C)c2c(c1C)CC(C)(C)O2)NC(=O)[C@H](CCCCNC(=O)OC(C)(C)C)NC(=O)[C@@H](NC(=O)OCC1c2ccccc2-c2ccccc21)C(C)C)C(=O)N[C@@H](CCCCNC(=O)OC(C)(C)C)C(=O)N[C@@H](Cc1ccccc1)C(=O)N[C@@H](Cc1ccccc1)C(=O)N[C@@H](CCCNC(=N)NS(=O)(=O)c1c(C)c(C)c2c(c1C)CC(C)(C)O2)C(=O)N[C@@H](CCCCNC(=O)OC(C)(C)C)C(=O)N[C@@H](CC(C)C)C(=O)N[C@@](C)(CCCC=C)C(=O)N[C@@H](CCCCNC(=O)OC(C)(C)C)C(=O)N[C@@H](CC(C)C)C(=O)N[C@H](C(N)=O)C(C)C`, the ring closure, overall yield in series [2] (33-membered ring) turned out to be 65%.
On to `C=CCCC[C@](C)(NC(=O)[C@H](CCCNC(=N)NS(=O)(=O)c1c(C)c(C)c2c(c1C)CC(C)(C)O2)NC(=O)[C@H](Cc1ccccc1)NC(=O)[C@H](Cc1ccccc1)NC(=O)[C@](C)(CCCC=C)NC(=O)[C@H](CCCCNC(=O)OC(C)(C)C)NC(=O)[C@H](Cc1ccccc1)NC(=O)[C@H](CCCNC(=N)NS(=O)(=O)c1c(C)c(C)c2c(c1C)CC(C)(C)O2)NC(=O)[C@H](CCCCNC(=O)OC(C)(C)C)NC(=O)[C@@H](NC(=O)OCC1c2ccccc2-c2ccccc21)C(C)C)C(=O)N[C@@H](CC(C)C)C(=O)N[C@@H](CCCCNC(=O)OC(C)(C)C)C(=O)N[C@@H](CCCCNC(=O)OC(C)(C)C)C(=O)N[C@@H](CC(C)C)C(=O)N[C@H](C(N)=O)C(C)C`, for which the ring closure, overall yield in series [1] (setting [4]) came out at 66%.
In series [2] (21-membered ring), `C=CCCC[C@](C)(NC(=O)[C@H](CCCCNC(=O)OC(C)(C)C)NC(=O)[C@H](Cc1ccccc1)NC(=O)[C@H](CCCNC(=N)NS(=O)(=O)c1c(C)c(C)c2c(c1C)CC(C)(C)O2)NC(=O)[C@](C)(CCCC=C)NC(=O)[C@@H](NC(=O)OCC1c2ccccc2-c2ccccc21)C(C)C)C(=O)N[C@@H](Cc1ccccc1)C(=O)N[C@@H](Cc1ccccc1)C(=O)N[C@@H](CCCNC(=N)NS(=O)(=O)c1c(C)c(C)c2c(c1C)CC(C)(C)O2)C(=O)N[C@@H](CCCCNC(=O)OC(C)(C)C)C(=O)N[C@@H](CC(C)C)C(=O)N[C@@H](CCCCNC(=O)OC(C)(C)C)C(=O)N[C@@H](CCCCNC(=O)OC(C)(C)C)C(=O)N[C@@H](CC(C)C)C(=O)N[C@H](C(N)=O)C(C)C` came in with a ring closure, overall yield of 65%.
